Experimental data taken from ChEMBL document CHEMBL6109061, “Discovery of an Ultralong-acting Nondepolarizing Neuromuscular Blocker That Displays Short Onset Time and On-Demand Rapid Reversal by a Biocompatible Antagonist” (J Med Chem, 2025).
Activity calls are given as the source filed them. No cut-off for these calls is given here.

Tests used:
Rattus norvegicus [1] = species on record: Rattus norvegicus; assay: Recovery of Pan-induced neuromuscular block in Sprague-Dawley rat assessed as […] ratio (TOFr) <= 25% by measuring recovery time; type: functional
[2] = Solubility of compound in water; type: physicochemical
Rattus norvegicus [3] = assay: Neuromuscular block activity in propofol-induced anesthetized iv dosed Sprague-Dawley rat model assessed as minimum dose for complete neuromuscular block; type: functional; conditions: read-out: MED
Rattus norvegicus [4] = assay: Neuromuscular block activity in propofol-induced anesthetized Sprague-Dawley rat model assessed as inhibition of twitch by measuring twitch intensity of quadriceps muscle at 0.3 mg/kg, iv administered as bolus dose by TOF watch monitor analysis relative to control; type: functional
Rattus norvegicus [5] = assay: Reversal of IMC-14-induced neuromuscular block in Sprague-Dawley rat model assessed as recovery time at 10 mg/kg, iv measured at 5 hrs; type: functional
[6] = Toxicity in Sprague-Dawley rat at 0.2 mg/kg, iv measured for 5 hrs; type: organism-based; conditions: in vivo
Rattus norvegicus [7] = assay: Reversal of IMC-14-induced neuromuscular block in Sprague-Dawley rat model assessed as recovery time at 10 mg/kg, iv measured at 30 sec; type: functional; conditions: 0.5 min
Rattus norvegicus [8] = assay: Reversal of IMC-14-induced neuromuscular block in Sprague-Dawley rat model assessed as recovery time at 20 mg/kg, iv measured at 19 sec; type: functional; conditions: 19 s
Rattus norvegicus [9] = assay: Reversal of IMC-14-induced neuromuscular block in Sprague-Dawley rat model assessed as recovery time at 10 mg/kg, iv measured at 30 mins; type: functional; conditions: 0.5 h
Rattus norvegicus [10] = assay: Neuromuscular block activity in propofol-induced anesthetized Sprague-Dawley rat model assessed as reduction in twitch inhibition by measuring twitch intensity of quadriceps muscle at 0.3 mg/kg, iv administered as bolus dose by TOF watch monitor analysis; type: functional, organism-based
Rattus norvegicus [11] = assay: Neuromuscular block activity in propofol-induced anesthetized Sprague-Dawley rat model assessed as time duration of 0 to 25 percent recovery indices at 0.04 mg/kg, iv; type: functional
Rattus norvegicus [12] = assay: Neuromuscular block activity in propofol-induced anesthetized Sprague-Dawley rat model assessed as inhibition of twitch by measuring twitch intensity of quadriceps muscle at 0.04 mg/kg, iv administered as bolus dose by TOF watch monitor analysis relative to control; type: functional
Rattus norvegicus [13] = assay: Neuromuscular block activity in propofol-induced anesthetized Sprague-Dawley rat model assessed as onset time required for twitch reduction at 0.04 mg/kg, iv; type: functional
Rattus norvegicus [14] = assay: Neuromuscular block activity in propofol-induced anesthetized Sprague-Dawley rat model assessed as recovery time at 0.04 mg/kg, iv; type: functional
Rattus norvegicus [15] = assay: Neuromuscular block activity in propofol-induced anesthetized Sprague-Dawley rat model assessed as inhibition of twitch by measuring twitch intensity of quadriceps muscle at 0.6 mg/kg, iv administered as bolus dose by TOF watch monitor analysis relative to control; type: functional

solubility [2] [mM] | Compound | minimal effective dose (Rattus norvegicus [3]) [mg/kg] | inhibition in vivo at 0.3 mg/kg (Rattus norvegicus [4]) [%] | inhibition in vivo at 0.04 mg/kg (Rattus norvegicus [12]) [%] | other results
≥ 50 | [Cl-].[Cl-].[Cl-].[Cl-].c1cc2ccc1C[n+]1ccn(c1)CCCCCn1cc[n+](c1)Cc1ccc(cc1)Oc1ccc(cc1)C[n+]1ccn(c1)CCCCCn1cc[n+](c1)Cc1ccc(cc1)O2 |  |  | 100 | Time (Rattus norvegicus [11]): 41 min; Time (Rattus norvegicus [13]): 138 s; Time (Rattus norvegicus [14]): 31 min
≥ 50 | Cc1n2cc[n+]1Cc1ccc(cc1)Oc1ccc(cc1)C[n+]1ccn(c1C)CCCCCCCn1cc[n+](c1C)Cc1ccc(cc1)Oc1ccc(cc1)C[n+]1ccn(c1C)CCCCCCC2.[Cl-].[Cl-].[Cl-].[Cl-] |  |  | 100 | Time (Rattus norvegicus [11]): 61 min; Time (Rattus norvegicus [13]): 498 s; Time (Rattus norvegicus [14]): 18 min
≥ 50 | [Cl-].[Cl-].[Cl-].[Cl-].c1cc2cc(c1)Cn1cc[n+](c1)Cc1ccc(cc1)Oc1ccc(cc1)C[n+]1ccn(c1)Cc1cccc(c1)Cn1cc[n+](c1)Cc1ccc(cc1)Oc1ccc(cc1)C[n+]1ccn(c1)C2 | 0.16 | 100 |  | 
≥ 50 | COC(=O)c1cc2cc(c1)Cn1cc[n+](c1)Cc1ccc(cc1)Oc1ccc(cc1)C[n+]1ccn(c1)Cc1cc(cc(C(=O)OC)c1)Cn1cc[n+](c1)Cc1ccc(cc1)Oc1ccc(cc1)C[n+]1ccn(c1)C2.[Cl-].[Cl-].[Cl-].[Cl-] | 0.6 | 50 |  | 
~0.5 | [Cl-].[Cl-].[Cl-].[Cl-].c1ccc2c(c1)n1c[n+]2Cc2ccc(cc2)Oc2ccc(cc2)C[n+]2cn(c3ccccc32)CCCCCn2c[n+](c3ccccc32)Cc2ccc(cc2)Oc2ccc(cc2)C[n+]2cn(c3ccccc32)CCCCC1 |  |  | 0 | Time (Rattus norvegicus [11]): 27 min
≥ 50 | Cc1n2cc[n+]1Cc1ccc(cc1)Oc1ccc(cc1)C[n+]1ccn(c1C)Cc1cccc(c1)Cn1cc[n+](c1C)Cc1ccc(cc1)Oc1ccc(cc1)C[n+]1ccn(c1C)Cc1cccc(c1)C2.[Cl-].[Cl-].[Cl-].[Cl-] | 0.1 | 100 | 54 | 

The remaining lines, values behind:

Compound | solubility [2] [mM] | minimal effective dose (Rattus norvegicus [3]) [mg/kg] | inhibition in vivo at 0.3 mg/kg (Rattus norvegicus [4]) [%] | inhibition in vivo at 0.04 mg/kg (Rattus norvegicus [12]) [%] | other results
[Cl-].[Cl-].[Cl-].[Cl-].c1cc2ccc1Cn1cc[n+](c1)Cc1ccc(cc1)-c1ccc(cc1)C[n+]1ccn(c1)Cc1ccc(cc1)Cn1cc[n+](c1)Cc1ccc(cc1)-c1ccc(cc1)C[n+]1ccn(c1)C2 | ≥ 50 | 1.2 | 3 |  | Time (Rattus norvegicus [1]): 36 min
C[C@]12N3Cc4c(c(OCCCC(=O)[O-])c5ccccc5c4OCCCC(=O)[O-])CN1C(=O)N1CN4C(=O)N5CN6C(=O)N7CN8C(=O)N9Cc%10c(c(OCCCC(=O)[O-])c%11ccccc%11c%10OCCCC(=O)[O-])CN%10C(=O)N(CN%11C(=O)N(CN%12C(=O)N(CN(C3=O)[C@]12C)[C@@H]4[C@H]%125)[C@@H]6[C@H]%117)[C@]8(C)[C@@]9%10C.[Na+].[Na+].[Na+].[Na+] |  |  |  |  | Time (Rattus norvegicus [5]): 12 s; Activity [6]: Non-toxic; Time (Rattus norvegicus [7]): 54 s; Time (Rattus norvegicus [8]): 30 s; Time (Rattus norvegicus [9]): 19 s
[Cl-].[Cl-].[Cl-].[Cl-].c1cc2ccc1Cc1ccc(cc1)C[n+]1ccn(c1)Cc1ccc(o1)Cn1cc[n+](c1)Cc1ccc(cc1)Cc1ccc(cc1)C[n+]1ccn(c1)Cc1ccc(o1)Cn1cc[n+](c1)C2 | ≥ 50 | 5 | 0 |  | Activity (Rattus norvegicus [10]): inactive
COC(=O)c1cc2cc(c1)Cn1cc[n+](c1)Cc1ccc(cc1)-c1ccc(cc1)C[n+]1ccn(c1)Cc1cc(cc(C(=O)OC)c1)Cn1cc[n+](c1)Cc1ccc(cc1)-c1ccc(cc1)C[n+]1ccn(c1)C2.[Cl-].[Cl-].[Cl-].[Cl-] | ≥ 50 | 1.5 | 5 |  | 
O=C(O)c1cc2cc(c1)Cn1cc[n+](c1)Cc1ccc(cc1)-c1ccc(cc1)C[n+]1ccn(c1)Cc1cc(cc(C(=O)O)c1)Cn1cc[n+](c1)Cc1ccc(cc1)-c1ccc(cc1)C[n+]1ccn(c1)C2.[Cl-].[Cl-].[Cl-].[Cl-] | ≥ 50 | 1.2 | 0 |  | Activity (Rattus norvegicus [10]): inactive
c1c[n+]2ccc1CCCc1cc[n+](cc1)Cc1ccc(cc1)Oc1ccc(cc1)C[n+]1ccc(cc1)CCCc1cc[n+](cc1)Cc1ccc(cc1)Oc1ccc(cc1)C2 |  |  | 38 | 0 | inhibition in vivo at 0.6 mg/kg (Rattus norvegicus [15]): 100%
